Data taken from ChEMBL document CHEMBL1147641, “Highly potent and long-acting trimeric and tetrameric inhibitors of influenza virus neuraminidase” (Bioorg Med Chem Lett, 2004).
Converted amounts (≈) assume the structure as drawn.

What was measured:
Influenza A virus = assay: Antiinfluenza activity of compound against Influenza A/Sydney/5/97 in influenza cytopathic effect (CPE) assay; format: functional, organism-based
Influenza B virus = assay: Antiinfluenza activity of compound against Influenza B/Harbin/7/95 in influenza cytopathic effect (CPE) assay; format: functional, organism-based
Mus musculus [1] = assay: Reduction in virus titre taken from mouse infected with Influenza A/Singapore/1/57 at 0.1 mg/kg dose in 7 day mouse influenza prevention assay; format: functional
Mus musculus [2] = assay: Reduction in virus titre taken from mouse infected with Influenza A/Singapore/1/57 at 1.0 mg/kg dose in 7 day mouse influenza prevention assay; format: functional
Mus musculus [3] = assay: Reduction in virus titre taken from mouse infected with Influenza A/Singapore/1/57 at 0.01 mg/kg dose in 7 day mouse influenza prevention assay; format: functional
Mus musculus [4] = assay: Reduction in virus titre taken from mouse infected with Influenza A/Singapore/1/57 at 0.4 mg/kg dose in 7 day mouse influenza prevention assay; format: functional
Mus musculus [5] = assay: Reduction in virus titre taken from mouse infected with Influenza A/Singapore/1/57 at 1.6 mg/kg dose in 7 day mouse influenza prevention assay; format: functional
Mus musculus [6] = assay: Number of virus free mice from total 8 mice infected with Influenza A/Singapore/1/57 after 12.5 mg/kg of intranasal administration for 172 hr prior to viral infection; format: functional
Mus musculus [7] = assay: Number of virus free mice from total 9 mice infected with Influenza A/Singapore/1/57 after 12.5 mg/kg of intranasal administration for 145 hr prior to viral infection; format: functional
Mus musculus [8] = assay: Number of virus free mice from total 9 mice infected with Influenza A/Singapore/1/57 after 12.5 mg/kg of intranasal administration for 51 hr prior to viral infection; format: functional
Mus musculus [9] = assay: Number of virus free mice from total 10 mice infected with Influenza A/Singapore/1/57 after 12.5 mg/kg of intranasal administration for 172 hr prior to viral infection; format: functional
Mus musculus [10] = assay: Number of virus free mice from total 10 mice infected with Influenza A/Singapore/1/57 after 12.5 mg/kg of intranasal administration for 117 hr prior to viral infection; format: functional

Compound: CC(=O)N[C@H]1[C@H]([C@H](OC(=O)NCCCCCCNC(=O)CC(O)(CC(=O)NCCCCCCNC(=O)O[C@@H]([C@@H]2OC(C(=O)O)=C[C@H](N=C(N)N)[C@H]2NC(C)=O)[C@H](O)CO)C(=O)NCCCCCCNC(=O)O[C@@H]([C@@H]2OC(C(=O)O)=C[C@H](NC(=N)N)[C@H]2NC(C)=O)[C@H](O)CO)[C@H](O)CO)OC(C(=O)O)=C[C@@H]1N=C(N)N
- EC50 (Influenza A virus): 0.159 ng/mL (≈ 0.102 nM)
- EC50 (Influenza B virus): 2.48 ng/mL (≈ 1.58 nM)
- Effectiveness (Mus musculus [1]): 85.88%
- Effectiveness (Mus musculus [2]): 99.11%

Compound: CC(=O)N[C@H]1[C@H]([C@H](OC(=O)NCCCCCCNC(=O)[C@H]2C[C@@H](C(=O)NCCCCCCNC(=O)O[C@@H]([C@@H]3OC(C(=O)O)=C[C@H](NC(=N)N)[C@H]3NC(C)=O)[C@H](O)CO)C[C@@H](C(=O)NCCCCCCNC(=O)O[C@@H]([C@@H]3OC(C(=O)O)=C[C@H](NC(=N)N)[C@H]3NC(C)=O)[C@H](O)CO)C2)[C@H](O)CO)OC(C(=O)O)=C[C@@H]1NC(=N)N
- EC50 (Influenza A virus): 0.3 ng/mL (≈ 0.189 nM)
- EC50 (Influenza B virus): 0.438 ng/mL (≈ 0.276 nM)
- Effectiveness (Mus musculus [1]): 94.38%
- Effectiveness (Mus musculus [2]): 98.32%

Compound: CC(=O)N[C@H]1[C@H]([C@H](OC(=O)NCCCCCCNC(=O)c2cc(C(=O)NCCCCCCNC(=O)O[C@@H]([C@@H]3OC(C(=O)O)=C[C@H](N=C(N)N)[C@H]3NC(C)=O)[C@H](O)CO)cc(C(=O)NCCCCCCNC(=O)O[C@@H]([C@@H]3OC(C(=O)O)=C[C@H](NC(=N)N)[C@H]3NC(C)=O)[C@H](O)CO)c2)[C@H](O)CO)OC(C(=O)O)=C[C@@H]1N=C(N)N
- EC50 (Influenza A virus): 0.82 ng/mL (≈ 0.519 nM)
- EC50 (Influenza B virus): 1.33 ng/mL (≈ 0.842 nM)
- Effectiveness (Mus musculus [3]): 70.15%
- Effectiveness (Mus musculus [1]): 96.24%

Compound: CC(=O)N[C@H]1[C@H]([C@H](OC(=O)NCCCCCCNC(=O)CN(CCN(CC(=O)NCCCCCCNC(=O)O[C@@H]([C@@H]2OC(C(=O)O)=C[C@H](N=C(N)N)[C@H]2NC(C)=O)[C@H](O)CO)CC(=O)NCCCCCCNC(=O)O[C@@H]([C@@H]2OC(C(=O)O)=C[C@H](NC(=N)N)[C@H]2NC(C)=O)[C@H](O)CO)CC(=O)NCCCCCCNC(=O)O[C@@H]([C@@H]2OC(C(=O)O)=C[C@H](N=C(N)N)[C@H]2NC(C)=O)[C@H](O)CO)[C@H](O)CO)OC(C(=O)O)=C[C@@H]1N=C(N)N
- EC50 (Influenza A virus): 1.07 ng/mL (≈ 0.505 nM)
- EC50 (Influenza B virus): 2.84 ng/mL (≈ 1.34 nM)
- Effectiveness (Mus musculus [3]): 68.38%
- Effectiveness (Mus musculus [1]): 95.53%

Compound: CC(=O)N[C@H]1[C@H]([C@H](OC(=O)NCCCCCCNC(=O)c2cc(C(=O)NCCCCCCNC(=O)O[C@@H]([C@@H]3OC(C(=O)O)=C[C@H](N=C(N)N)[C@H]3NC(C)=O)[C@H](O)CO)c(C(=O)NCCCCCCNC(=O)O[C@@H]([C@@H]3OC(C(=O)O)=C[C@H](NC(=N)N)[C@H]3NC(C)=O)[C@H](O)CO)cc2C(=O)NCCCCCCNC(=O)O[C@@H]([C@@H]2OC(C(=O)O)=C[C@H](N=C(N)N)[C@H]2NC(C)=O)[C@H](O)CO)[C@H](O)CO)OC(C(=O)O)=C[C@@H]1N=C(N)N
- EC50 (Influenza A virus): 0.53 ng/mL (≈ 0.255 nM)
- EC50 (Influenza B virus): 0.95 ng/mL (≈ 0.457 nM)
- Effectiveness (Mus musculus [1]): 74.88%
- Effectiveness (Mus musculus [2]): 99.68%

Compound: CC(=O)N[C@H]1[C@H]([C@H](OC(=O)NCCCCCCN)[C@H](O)CO)OC(C(=O)O)=C[C@@H]1NC(=N)N
- EC50 (Influenza A virus): 438 ng/mL (≈ 923 nM)
- EC50 (Influenza B virus): 213 ng/mL (≈ 449 nM)

Compound: CC(=O)N[C@H]1[C@H]([C@H](OC(=O)NCCCCCCNC(=O)CC(CC(=O)NCCCCCCNC(=O)O[C@@H]([C@@H]2OC(C(=O)O)=C[C@H](N=C(N)N)[C@H]2NC(C)=O)[C@H](O)CO)C(=O)NCCCCCCNC(=O)O[C@@H]([C@@H]2OC(C(=O)O)=C[C@H](NC(=N)N)[C@H]2NC(C)=O)[C@H](O)CO)[C@H](O)CO)OC(C(=O)O)=C[C@@H]1N=C(N)N
- EC50 (Influenza A virus): 0.4 ng/mL (≈ 0.259 nM)
- EC50 (Influenza B virus): 0.81 ng/mL (≈ 0.524 nM)
- Effectiveness (Mus musculus [1]): 68.78%
- Effectiveness (Mus musculus [2]): 98.24%

Compound: CC(=O)N[C@H]1[C@H]([C@H](O)[C@H](O)CO)OC(C(=O)O)=C[C@@H]1NC(=N)N [ZANAMIVIR]
- EC50 (Influenza A virus): 32.5 ng/mL (≈ 97.8 nM)
- EC50 (Influenza B virus): 12.2 ng/mL (≈ 36.7 nM)
- Effectiveness (Mus musculus [4]): 0%
- Effectiveness (Mus musculus [2]): 81.76%
- Effectiveness (Mus musculus [5]): 97.03%
- No. of virus free mice (Mus musculus [6]): 0
- No. of virus free mice (Mus musculus [7]): 3
- No. of virus free mice (Mus musculus [8]): 3
- No. of virus free mice (Mus musculus [9]): 0
- No. of virus free mice (Mus musculus [10]): 1
